From patent US11834433B2, “Compounds” (INFLAZOME LIMITED, priority 2018, dated 2023)
Where a name gives a salt, the structure may show the parent alone.

System: NLRP3
Test: THP-1 cells pyroptosis assay (LPS + nigericin, resazurin read-out)
Format: cell-based
Conditions: Homo sapiens, 1 μg/ml LPS, 5 μM nigericin, NLRP3 inhibitory activity
Method: THP-1 cells (ATCC #TIB-202) were grown in RPMI containing L-glutamine (Gibco #11835) supplemented with 1 mM sodium pyruvate (Sigma #S8636) and penicillin (100 units/ml)/streptomycin (0.1 mg/ml) (Sigma #P4333) in 10% Fetal Bovine Serum (FBS) (Sigma #F0804). The cells were routinely passaged and grown to confluency (˜10^6 cells/ml). On the day of the experiment, THP-1 cells were harvested and resuspended into RPMI medium (without FBS). The cells were then counted and viability (>90%) checked by Trypan blue (Sigma #T8154). Appropriate dilutions were made to give a concentration of 625,000 cells/ml. To this diluted cell solution was added LPS (Sigma #L4524) to give a 1 μg/ml Final Assay Concentration (FAC). 40 μl of the final preparation was aliquoted into each well of a 96-well plate. The plate thus prepared was used for compound screening. The following method step-by-step assay was followed for compound screening. • 1. Seed THP-1 cells (25,000 cells/well) containing 1.0 μg/ml LPS in 40 μl of RPMI medium (without FBS) in 96-well, black walled, clear bottom cell culture plates coated with poly-D-lysine (VWR #734-0317) • 2. Add 5 μl compound (8 points half-log dilution, with 10 μM top dose) or vehicle (DMSO 0.1% FAC) to the appropriate wells • 3. Incubate for 3 hrs at 37° C., 5% CO2 • 4. Add 5 μl nigericin (Sigma #N7143) (FAC 5 μM) to all wells • 5. Incubate for 1 hr at 37° C., 5% CO2 • 6. At the end of the incubation period, spin plates at 300×g for 3 mins and remove supernatant • 7. Then add 50 μl of resazurin (Sigma #R7017) (FAC 100 μM resazurin in RPMI medium without FBS) and incubate plates for a further 1-2 hrs at 37° C. and 5% CO2 • 8. Plates were read in an Envision reader at Ex 560 nm and Em 590 nm • 9. IC50 data is fitted to a non-linear regression equation (log inhibitor vs response-variable slope 4-parameters) [table]

Row | Structure (SMILES) | IC50 [µM]
1 | COC1(c2cc(S(=O)(=O)NC(=O)Cc3c(-c4ccnc(C#N)c4)ccc4c3CCC4)nn2C(C)C)COC1 [Example 2, 2-(5-(2-Cyanopyridin-4-yl)-2,3-dihydro-1H-inden-4-yl)-N-((1-isopropyl-5-(3-methoxyoxetan-3-yl)-1H-pyrazol-3-yl)sulfonyl)acetamide, potassium Salt] | ≤ 10
2 | COC(C)(C)Cn1ccc(S(=O)(=O)NC(=O)Cc2c3c(cc4c2CCC4)CCC3)n1 [Example 4, 2-(1,2,3,5,6,7-Hexahydro-s-indacen-4-yl)-N-((1-(2-methoxy-2-methylpropyl)-1H-pyrazol-3-yl)sulfonyl)acetamide] | ≤ 5
3 | COC1(c2cc(S(=O)(=O)NC(=O)Cc3c4c(cc5c3CCC5)CCC4)nn2C(C)C)COC1 [Example 1, 2-(1,2,3,5,6,7-Hexahydro-s-indacen-4-yl)-N-((1-isopropyl-5-(3-methoxyoxetan-3-yl)-1H-pyrazol-3-yl)sulfonyl)acetamide] | ≤ 5
4 | COC1(c2cc(S(=O)(=O)NC(=O)Cc3c4c(cc5c3CCC5)CCC4)nn2C2CC2)COC1 [Example 3, N-((1-Cyclopropyl-5-(3-methoxyoxetan-3-yl)-1H-pyrazol-3-yl)sulfonyl)-2-(1,2,3,5,6,7-hexahydro-s-indacen-4-yl)acetamide] | ≤ 5

Further lines, results first:

Row | IC50 [µM] | Structure (SMILES)
5 | ≤ 5 | COC1(c2cc(S(=O)(=O)NC(=O)Cc3c(C(C)C)cc(F)cc3C(C)C)nn2C(C)C)COC1 [Example 5, 2-(4-Fluoro-2,6-diisopropylphenyl)-N-((1-isopropyl-5-(3-methoxyoxetan-3-yl)-1H-pyrazol-3-yl)sulfonyl)acetamide]
6 | ≤ 5 | CC(C)c1cc(F)cc(C(C)C)c1CC(=O)NS(=O)(=O)c1ccn(C[C@@H](C)O)n1 [Example 6, (R)-2-(4-Fluoro-2,6-diisopropylphenyl)-N-((1-(2-hydroxypropyl)-1H-pyrazol-3-yl)sulfonyl)acetamide]
7 | ≤ 5 | COCC(C)(C)n1ccc(S(=O)(=O)NC(=O)Cc2c(-c3ccnc(OC)c3)cc(F)cc2C(C)C)n1 [Example 8]
8 | ≤ 5 | COc1cc(-c2cc(F)cc(C(C)C)c2CC(=O)NS(=O)(=O)c2cnn(CC(C)(C)O)c2)ccn1 [Example 7]
9 | ≤ 5 | COc1cc(-c2cc(F)cc(C(C)C)c2CC(=O)NS(=O)(=O)c2ccn(C(C)(C)CO)n2)ccn1 [Example 9]
